In US12054478B2, “Compositions and methods for inhibiting phenyl triazole MLL1-WDR5 protein-protein interaction” (China Pharmaceutical University, priority 2018, dated 2024):
≈ marks a conversion by molar mass, not a printed value. Like-named read-outs stand apart in the source and are kept apart here.

Key:
[1] = test system: female balb/c mice; conditions: 80 mg/kg intraperitoneal, 10 consecutive days
Description: In the meantime, subacute toxicity experiments were conducted to evaluate the safety of some of the compounds in the present disclosure in mouse.

[2] = test system: MV4-11 human acute leukemia monocyte; assay: Anti-proliferation on leukemia cells, MV4-11; type: cell-based; conditions: Homo sapiens, MV4-11; MV-411 cells
Description: (§1) Anti-proliferation experiments were conducted with leukemia cells with some of the compounds in the present disclosure.

[3] = test system: Molm-13 human acute myeloid leukemia cells; assay: Anti-proliferation on leukemia cells, Molm-13; type: cell-based; conditions: Homo sapiens; Molm-13 cells
Description: as §1

[4] = test system: K562 human chronic myeloid leukemia cells; assay: Anti-proliferation on leukemia cells, K562; type: cell-based
Description: Anti-proliferation experiments were conducted with leukemia cells with some of the compounds in the present disclosure. Table 3 listed the results of evaluation of the anti-proliferation activities for some of the compounds from this present disclosure conducted with acute leukemia cells, wherein MV4-11 is human acute leukemia monocyte, Molm-13 is human acute myeloid leukemia cells, and K562 is human chronic myeloid leukemia cells.

[5] = target: MLL1-WDR5 protein-protein interactions (Homo sapiens, UniProt P61964); assay: Inhibition of MLL1-WDR5 protein-protein interaction; type: binding
[6] = Solubility at pH 7.4; type: physicochemical; conditions: aqueous medium at pH 7.4 (water solubility), aqueous buffer
[7] = Table 1, read-out: MLL1-WDR5 PPI inhibition activity
[8] = Table 2, compounds of this present disclosure
[9] = Table 2, compounds of this present disclosure, read-out: MLL1-WDR5 PP1 inhibition activity
[10] = Table 2, biphenyl comparison compounds (Eur. J. Med. Chem. 2016, 124, 480-489), read-out: MLL1-WDR5 PP1 inhibition activity
[11] = Table 2, biphenyl comparison compounds

| SMILES | GI50 [2] [µM] | GI50 [3] [µM] | GI50 [4] [µM] | IC50 [5, 7] [µM] | also measured |
| --- | --- | --- | --- | --- | --- |
| Cc1c(F)c(N)cc(C(=O)Nc2cc(-c3ccc(NC(=O)C(N)C(C)C)cc3)ccc2N2CCN(C)CC2)c1Cl (stereo not drawn) [DDO-2113, reference compound] | – | – | – | – | Mouse survival [1]: all mice died after dosing for 5 days |
| Cc1c(F)c(N)cc(C(=O)Nc2cc(-c3ccc(NC(=O)CCCN)cc3)ccc2N2CCN(C)CC2)c1Cl [DDO-2117, reference compound] | – | – | – | – | Average body weight changes [1]: apparent body weight decrease |
| Cc1c(F)c(N)cc(C(=O)Nc2cc(-n3cc(C(=O)N(C)C)nn3)ccc2N2CCN(C)CC2)c1Cl [Example 3, 1-(3-(5-Amino-2-chloro-4-fluoro-3-methylbenzoylamino)-4-(4-methylpiperazin-1-group)phenyl)-N, N-dimethyl-1H-1,2,3 triazole-4-carboxamide] | 44.6 ± 1.3 | 22.8 ± 5.5 | > 100 | – | – |
| Cc1c(F)c(N)cc(C(=O)Nc2cc(-n3cc(C(=O)NC4CCOCC4)nn3)ccc2N2CCN(C)CC2)c1Cl [Example 5, 1-(3-(5-Amino-2-chloro-4-fluoro-3-methylbenzoylamino)-4-(4-methylpiperazin-1-group)phenyl)-N-(tetrahydro-2H-pyran-4-yl)-1H-1,2,3-triazole-4-carboxamide] | – | – | 27.5 ± 2.8 | – | – |
| Cc1c(F)c(N)cc(C(=O)Nc2cc(-n3cc(C(=O)NC4CCN(C)CC4)nn3)ccc2N2CCN(C)CC2)c1Cl [Example 6, 1-(3-(5-Amino-2-chloro-4-fluoro-3-methylbenzoylamino)-4-(4-methylpiperazin-1-group)phenyl)-N-(1-methylpiperidin-4-group)-1H-1,2,3-triazole-4-carboxamide] | – | – | 10.4 ± 0.7 | – | Average body weight changes [1]: slight body weight increase |
| Cc1c(F)c(N)cc(C(=O)Nc2cc(-n3cc(C(=O)N4CCN(C)CC4)nn3)ccc2N2CCN(C)CC2)c1Cl [Example 8, 5-amino-2-chloro-4-fluoro-3-ethyl-N-(2-(4-methylpiperazin-1-group)-5-(4-(methylpiperazin-1-Carbonyl)-1H-1,-1H-1,2,3-triazole-1-group) Phenyl)-carboxamide] | – | – | 34.1 ± 1.2 | – | – |
| Cc1c(F)c(N)cc(C(=O)Nc2cc(-n3cc(C(=O)NCCN4CCOCC4)nn3)ccc2N2CCN(C)CC2)c1Cl [Example 9] | – | – | 35.8 ± 2.7 | – | – |
| CCOc1cn(-c2ccc(N3CCN(C)CC3)c(NC(=O)c3cc(N)c(F)c(C)c3Cl)c2F)nn1 [Example 20] | 8.6 ± 0.6 | 10.1 ± 1.3 | 10.5 ± 2 | – | – |
| Cc1c(F)c(O)cc(C(=O)Nc2c(N3CCN(C)CC3)ccc(-n3cc(NCC(N)=O)nn3)c2F)c1Cl [Example 21, N-(3-(4-((2-amino-2-Oxoethyl)amino)-1H-1,2,3-triazol-1-group)-2-fluoro-6-(4-methylpiperazin-1-group)phenyl)-2-chloro-4-fluoro-5-hydroxyl-3-Methyl benzoyl] | 12.7 ± 0.8 | 7.7 ± 0.9 | 10.5 ± 0.8 | < 0.08 | – |
| Cc1c(F)c(O)cc(C(=O)Nc2c(N3CCN(C)CC3)ccc(-n3cc(NC(=O)CCN)nn3)c2C)c1Cl [Example 23] | – | 17.9 ± 1.6 | 27.7 ± 0.3 | < 0.05 | – |
| COC(=O)c1cn(-c2ccc(N3CCN(C)CC3)c(NC(=O)c3cc(N)c(F)c(C)c3Cl)c2)nn1 [drawing 6] | – | – | – | – | solubility [6, 8]: 20 µg/mL (≈ 39.8 µM) |
| Cc1c(F)c(N)cc(C(=O)Nc2cc(-n3cc(C(=O)N(C)C)nn3)ccc2N2CCN(C)CC2)c1Cl [drawing 8] | – | – | – | – | solubility [6, 8]: 170 µg/mL (≈ 330 µM) |
| Cc1c(F)c(N)cc(C(=O)Nc2cc(-n3cc(C(=O)N4CCOCC4)nn3)ccc2N2CCN(C)CC2)c1Cl [drawing 10] | – | – | – | – | solubility [6, 8]: 200 µg/mL (≈ 359 µM) |
| Cc1c(F)c(N)cc(C(=O)Nc2cc(-n3ccnn3)ccc2N2CCN(C)CC2)c1Cl [drawing 12] | – | – | – | – | IC50 [5, 9]: 0.0657 µM; solubility [6, 8]: 30 µg/mL (≈ 67.6 µM) |
| Cc1c(F)c(N)cc(C(=O)Nc2cc(-n3cc(N)nn3)ccc2N2CCN(C)CC2)c1Cl [drawing 14] | – | – | – | – | IC50 [5, 9]: 0.0903 µM; solubility [6, 8]: 110 µg/mL (≈ 240 µM) |
| Cc1c(F)c(N)cc(C(=O)Nc2cc(-c3ccc(N)cc3)ccc2N2CCN(C)CC2)c1Cl [drawing 15, reference compound] | – | – | – | – | IC50 [5, 10]: 0.0887 µM; solubility [6, 11]: 9.5 µg/mL (≈ 20.3 µM) |
| Cc1c(F)c(N)cc(C(=O)Nc2cc(-n3cc(NC(=O)C4CCN(C)CC4)nn3)ccc2N2CCN(C)CC2)c1Cl [drawing 16] | – | – | – | – | IC50 [5, 9]: 0.006 µM; solubility [6, 8]: 630 µg/mL (≈ 1080 µM) |
| Cc1c(F)c(N)cc(C(=O)Nc2cc(-n3cc(NC(=O)C4CCNCC4)nn3)ccc2N2CCN(C)CC2)c1Cl [drawing 18] | – | – | – | – | IC50 [5, 9]: 0.0123 µM; solubility [6, 8]: 1240 µg/mL (≈ 2170 µM) |
| Cc1c(F)c(N)cc(C(=O)Nc2cc(-n3cc(NC(=O)CCCN)nn3)ccc2N2CCN(C)CC2)c1Cl [drawing 20] | – | – | – | – | IC50 [5, 9]: 0.0067 µM; solubility [6, 8]: 1300 µg/mL (≈ 2400 µM) |
| Cc1c(F)c(N)cc(C(=O)Nc2cc(-c3ccc(NC(=O)CCCN)cc3)ccc2N2CCN(C)CC2)c1Cl [drawing 21, reference compound] | – | – | – | – | solubility [6, 11]: 110 µg/mL (≈ 199 µM) |
| COC(=O)c1ccc(-c2ccc(N3CCN(C)CC3)c(NC(=O)c3cc(N)c(F)c(C)c3Cl)c2)cc1 [reference compound] | – | – | – | – | solubility [6, 11]: 1.9 µg/mL (≈ 3.72 µM) |
| Cc1c(F)c(N)cc(C(=O)Nc2cc(-c3ccc(C(=O)N(C)C)cc3)ccc2N2CCN(C)CC2)c1Cl [reference compound] | – | – | – | – | solubility [6, 11]: 21 µg/mL (≈ 40.1 µM) |
| Cc1c(F)c(N)cc(C(=O)Nc2cc(-c3ccc(C(=O)N4CCOCC4)cc3)ccc2N2CCN(C)CC2)c1Cl [reference compound] | – | – | – | – | solubility [6, 11]: 27 µg/mL (≈ 47.7 µM) |
| Cc1c(F)c(N)cc(C(=O)Nc2cc(-c3ccccc3)ccc2N2CCN(C)CC2)c1Cl [reference compound] | – | – | – | – | IC50 [5, 10]: 0.0479 µM; solubility [6, 11]: 3.1 µg/mL (≈ 6.84 µM) |
| Cc1c(F)c(N)cc(C(=O)Nc2cc(-c3ccc(NC(=O)C4CCN(C)CC4)cc3)ccc2N2CCN(C)CC2)c1Cl [reference compound] | – | – | – | – | solubility [6, 11]: 54 µg/mL (≈ 91 µM) |
| Cc1c(F)c(N)cc(C(=O)Nc2cc(-c3ccc(NC(=O)C4CCNCC4)cc3)ccc2N2CCN(C)CC2)c1Cl [reference compound] | – | – | – | – | IC50 [5, 10]: 0.0085 µM; solubility [6, 11]: 125 µg/mL (≈ 216 µM) |

The next lines start with results.

| GI50 [2] [µM] | GI50 [3] [µM] | GI50 [4] [µM] | IC50 [5, 7] [µM] | SMILES | also measured |
| --- | --- | --- | --- | --- | --- |
| 13.5 ± 1.2 | 13.5 ± 1.2 | 13.5 ± 1.2 | < 0.01 | Cc1c(F)c(N)cc(C(=O)Nc2cc(-n3cc(C(=O)NCCCN)nn3)ccc2N2CCN(C)CC2)c1Cl [Example 10] | – |
| 13.5 ± 1.5 | 13.5 ± 1.5 | 13.5 ± 1.5 | – | Cc1c(F)c(N)cc(C(=O)Nc2cc(-n3ccnn3)ccc2N2CCN(C)CC2)c1Cl [Example 11, 5-amino-2-chloro-4-fluoro-3-methyl-N-(2-(4-methylpiperazin-1-group)-5-(1H-1,2,3-triazole-1-group)phenyl) benzamide] | – |
| 23.2 ± 3.2 | – | – | < 0.08 | Cc1c(F)c(N)cc(C(=O)Nc2cc(-n3cc(NC(=O)OC(C)(C)C)nn3)ccc2N2CCN(C)CC2)c1Cl [Example 12] | – |
| 10.1 ± 1.3 | 9.2 ± 1.4 | 10.5 ± 2 | < 0.08 | Cc1c(F)c(N)cc(C(=O)Nc2cc(-n3cc(N)nn3)ccc2N2CCN(C)CC2)c1Cl [Example 13, 5-amino-N-(5-(4-amino-1H-1,2,3-triazole-1-group)-2-(4-methylpiperazin-1-group)phenyl)-2-chloro-4-fluoro-3-Methylbenzamide] | – |
| 9.5 ± 1 | 11 ± 2 | 14.1 ± 1.3 | < 0.01 | Cc1c(F)c(N)cc(C(=O)Nc2cc(-n3cc(NC(=O)C4CCN(C)CC4)nn3)ccc2N2CCN(C)CC2)c1Cl [Example 14] | – |
| 14.3 ± 1.7 | 18.5 ± 1.9 | 12.9 ± 0.2 | < 0.01 | Cc1c(F)c(N)cc(C(=O)Nc2cc(-n3cc(NC(=O)C4CCNCC4)nn3)ccc2N2CCN(C)CC2)c1Cl [Example 15, N-(1-(3-(5-amino-2-chloro-4-fluoro-3-Methylbenzoylamino)-4-(4-methylpiperazingroup)phenyl)-1H-1,2,3-Triazopyridine-4-group) Piperidine-4-formamide] | – |
| 10.4 ± 1.1 | 7.3 ± 0.8 | 21.3 ± 2.4 | < 0.05 | Cc1c(F)c(N)cc(C(=O)Nc2cc(-n3cc(NC(=O)CCO)nn3)ccc2N2CCN(C)CC2)c1Cl [Example 17, 5-amino-2-chloro-4-fluoro-N-(5-(4-(3-Hydroxypropionylamino)-1H-1,2,3-triazol-1-group)-2-(4-methylpiperazin-1-group)phenyl)-3-methyl benzoylamino] | – |
| 13.7 ± 1.4 | 16.8 ± 2 | 13.5 ± 1.2 | < 0.05 | Cc1c(F)c(N)cc(C(=O)Nc2cc(-n3cc(CCN(C)C)nn3)ccc2N2CCN(C)CC2)c1Cl [Example 19, 5-amino-2-chloro-N-(5-(4-(2-(Dimethylamino)ethyl)-1H-1,2,3-triazol-1-group)-2-(4-methylpiperazin-1-groupgroup)phenyl)-4-fluoro-3-Methyl benzoyl] | – |
| 11.3 ± 0.7 | 12.9 ± 0.9 | 13.5 ± 2.2 | < 0.05 | Cc1c(F)c(N)cc(C(=O)Nc2cc(-n3cc(C(=O)NCCN4CCOCC4)nn3)ccc2N2CCCN(C)CC2)c1Cl [Example 24, 1-(3-(5-amino-2-chloro-4-fluoro-3-Methylbenzoylamino)-4-(4-methyl-1,4-Diazepane-1-group)phenyl)-N-(2-Morpholineethyl)-1H-1,2,3-triazol-4-formamide] | – |
| 10.9 ± 0.9 | 8.5 ± 0.7 | 11.3 ± 0.7 | < 0.05 | Cc1c(F)c(N)cc(C(=O)Nc2cc(-n3cc(C(=O)NCCN4CCOCC4)nn3)ccc2N2CCN(C)C(C)C2)c1Cl (stereo not drawn) [Example 25] | – |
